From article PMC8264259, “A Novel Ruthenium(II) Complex With Lapachol Induces G2/M Phase Arrest Through Aurora-B Kinase Down-Regulation and ROS-Mediated Apoptosis in Human Prostate Adenocarcinoma Cells” (Frontiers in Oncology, 2021)

Experiments:
pBR322 plasmid DNA = test: DNA interactions assay with pBR322 plasmid (agarose gel electrophoresis); assay type: biochemical; conditions: 1.0 μM, 37°C, 18 h
Procedure: Plasmid pBR322 (38 µM, Sigma-Aldrich) was mixed with different concentrations (0.125–1.0 µM) of both complexes and incubated at 37°C for 18 h. Then, the loading buffer was added and the samples were analyzed by agarose gel electrophoresis for 90 min in 1% agarose gel using a Tris-acetate-EDTA (TAE) buffer (0.45 M Tris-HCl, 0.45 M acetic acid, 10 mM EDTA, pH 7.4), and ethidium bromide was employed for staining. Bands were visualized with a ChemiDoc MP imager (BioRad, USA).

calf thymus DNA (ct-DNA) = test: DNA minor groove interaction assay with Hoechst 33258; assay type: binding; conditions: Hoechst 2.7 µM, ct-DNA 125 µM, complex 0-125 µM, 37°C
Procedure: DNA minor groove interaction was assessed by examining the ability of the complexes to displace Hoechst 33258 (Thermo Fischer Scientific) from calf thymus DNA (ct-DNA) (Sigma-Aldrich). The ct-DNA solution was prepared by dilution of 2 mg of the ct-DNA in 1 ml of Tris-HCl buffer (4.5 mM Tris-HCl, 0.5 mM Tris-base, 50 mM NaCl, pH 7.4), and the concentration was determined by absorption spectrophotometric using the molar absorption coefficient 6600 mol^−1 dm^3 cm^−1 at 260 nm ([38]). Thus, the ct-DNA (125 µM) was incubated with Hoechst (2.7 µM), and the extinction of the fluorescence intensity was monitored by the addition of different concentrations (0–125 µM) of both complexes in Tris-HCl containing 10% of DMSO. Fluorescence emission spectra were recorded from […] to 500 nm after excitation wavelength of 343 nm, using an opaque 96-well plate, in a Synergy H1 Fluorescence Spectrophotometer (BioTek®), at 37°C.

In the case of `CC(C)=CCC1=C([O-])C(=O)c2ccccc2C1=O.F[P-](F)(F)(F)(F)F.[Ru+2].c1ccc(P(CP(c2ccccc2)c2ccccc2)c2ccccc2)cc1.c1cnc2c(c1)ccc1cccnc12` [complex (2), [Ru(Lap)(dppm)(phen)]PF6], the “nuclease activity on pBR322 (supercoiled to linear)” value (pBR322 plasmid DNA) is reported as “single-strand DNA cleavage” and the “displacement of Hoechst 33258 from ct-DNA (fluorescence)” value (calf thymus DNA (ct-DNA)) is reported as “decrease the fluorescence of the Hoechst-DNA system”.
